The values that follow come from patent publication US12565494B2, “Inhibitors of human respiratory syncytial virus and metapneumovirus” (priority 2022, dated 2026).

Each structure is given as a SMILES string. Where two headings read alike, the source gives them in different places.

In general, EC50 refers to the concentration needed to bring the measured effect to its halfway point.

For test [1], the system named is RSV-A2-GFP virus. The experiment in a line: microbe, parasite or virus in culture. It is filed as cell-based, Human Respiratory Syncytial Virus. The conditions noted are these: Calu-1 cells, RSV-A2-GFP MOI=1.2, 96 hrs, GFP-expressing cells counted. The method in brief: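 Assay-ready frozen Calu-1 cells (20,000 cells/mL) were infected with RSV-A2-GFP at MOI 1.2 in DMEM with 2% FBS and exposed to a 10-point 3-fold compound dilution for 96 h at 37 °C. GFP-positive cells were counted by imaging, with same-well CellTiter-Glo for cytotoxicity. IC50 and CC50 came from 4-parameter logistic fits.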

The test system of test [2] is hMPV-GFP virus. In words: microbe, parasite or virus in culture. The class given is cell-based, Human Metapneumovirus. The conditions noted are these: VERO cells, hMPV-GFP MOI=1.25, 48 hrs, GFP-expressing cells counted. Put shortly: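 VERO cells infected with GFP-expressing hMPV at MOI 1.25 and exposed to compound in 10-point 3-fold dilutions (typical final 40,300–2 nM) for 48 h at 37 °C. GFP-positive cells counted by imaging; same-well CellTiter-Glo for cytotoxicity. IC50 and CC50 from 4-parameter logistic fits.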

Setting [3] is: read-out: RSV EC50, Table I Summary of Activities for RSV.
Where [4] appears, read: read-out: RSV EC50, Table II Summary of Activities for hMPV.
[5] abbreviates: Table I Summary of Activities for RSV, read-out: RSV EC50.
The mark [6] stands for this setting: Table II Summary of Activities for hMPV, read-out: RSV EC50.
Setting [7] is: human respiratory syncytial virus, Calu-1, 96 h, read-out: RSV EC50, Table I Summary of Activities for RSV.
Where [8] appears, read: Vero, 48 h, read-out: RSV EC50, Table II Summary of Activities for hMPV.

Take `Cn1nc(-c2cscn2)cc1C(=O)N1C[C@H]2[C@H](Oc3cc(C(C)(C)N)cc(N4CCC(C)(C)CC4)n3)[C@@]2(C)C1` (single isomer, unassigned; enantiomer 2) [Example 46B]: the 50% effective concentration (EC50) is < 10 nM in test [1] (setting [3]) and > 100 nM in test [2] (setting [4]).
Turning to `Cn1nc(-n2nccn2)cc1C(=O)N1C[C@@H]2[C@H](C1)[C@H]2Oc1cc(C(C)(C)N)cc(-c2ccc(F)cc2)n1` [Example 68, ((1R,5S,6s)-6-((4-(2-aminopropan-2-yl)-6-(4-fluorophenyl)pyridin-2-yl)oxy)-3-azabicyclo[3.1.0]hexan-3-yl)(1-methyl-3-(2H-1,2,3-triazol-2-yl)-1H-pyrazol-5-yl)methanone], the figures for the EC50 in test [1] (setting [5]) and in test [2] (setting [6]) were < 10 nM and 10 to 100 nM, respectively.
For `Cn1nc(-c2cscn2)cc1C(=O)N1C[C@@H]2[C@H](C1)[C@H]2Oc1cc(C2(N)CCC2)cc(-c2ccc(F)cc2)n1` [Example 52, ((1R,5S,6s)-6-((4-(1-aminocyclobutyl)-6-(4-fluorophenyl)pyridin-2-yl)oxy)-3-azabicyclo[3.1.0]hexan-3-yl)(1-methyl-3-(thiazol-4-yl)-1H-pyrazol-5-yl)methanone] the same measures were < 10 nM and > 100 nM.
For `Cc1nc(-c2ncn[nH]2)sc1C(=O)N1C[C@@H]2[C@H](C1)[C@H]2Oc1cc(C(C)(C)N)cc(-c2ccc(F)cc2)n1` [Example 10, ((1R,5S,6s)-6-((4-(2-aminopropan-2-yl)-6-(4-fluorophenyl)pyridin-2-yl)oxy)-3-azabicyclo[3.1.0]hexan-3-yl)(4-methyl-2-(1H-1,2,4-triazol-5-yl)thiazol-5-yl)methanone] the same measures were < 10 nM and > 100 nM.
The corresponding values for `Cc1nc(-c2cscn2)sc1C(=O)N1C[C@@H]2[C@H](C1)[C@H]2Oc1cc(C(C)(C)N)cc(-c2ccc(F)cc2F)n1` [Example 33, ((1R,5S,6s)-6-((4-(2-aminopropan-2-yl)-6-(2,4-difluorophenyl)pyridin-2-yl)oxy)-3-azabicyclo[3.1.0]hexan-3-yl)(4-methyl-[2,4′-bithiazol]-5-yl)methanone] are < 10 nM and > 100 nM.
Regarding `CC(N)c1cc(O[C@H]2[C@@H]3CN(C(=O)c4cc(-c5cscn5)nn4C)C[C@@H]32)nc(-c2ccc(F)cc2)c1` (single isomer, unassigned; enantiomer 1) [Example 61A], the EC50 in test [1] (setting [7]) is < 10 nM; in test [2] (setting [8]) it was > 100 nM.
For `CC(C)(N)c1cc(O[C@H]2[C@@H]3CN(C(=O)c4sc(-c5cscn5)nc4C4CC4)C[C@@H]32)nc(-c2ccc(F)cc2F)c1` [Example 34, ((1R,5S,6s)-6-((4-(2-aminopropan-2-yl)-6-(2,4-difluorophenyl)pyridin-2-yl)oxy)-3-azabicyclo[3.1.0]hexan-3-yl)(4-cyclopropyl-[2,4′-bithiazol]-5-yl)methanone], the concentration for a half-maximal effect (EC50) in test [1] (setting [5]) is < 10 nM; in test [2] (setting [6]) it was 10 to 100 nM.
With `Cn1nc(-c2ccon2)cc1C(=O)N1C[C@H]2[C@H](Oc3cc(C(C)(C)N)cc(-c4ccc(F)cc4)n3)[C@@]2(C)C1` (single isomer, unassigned; enantiomer 1) [Example 45A], the half-maximal effective concentration (EC50) was < 10 nM in test [1] (setting [7]) and > 100 nM in test [2] (setting [8]).
Turning to `Cn1nc(-c2cscn2)cc1C(=O)N1C[C@@H]2[C@H](C1)[C@H]2Oc1cc(C(C)(C)N)cc(-n2cc(C3CC3)cn2)n1` [Example 38, ((1R,5S,6s)-6-((4-(2-aminopropan-2-yl)-6-(4-cyclopropyl-1H-pyrazol-1-yl)pyridin-2-yl)oxy)-3-azabicyclo[3.1.0]hexan-3-yl)(1-methyl-3-(thiazol-4-yl)-1H-pyrazol-5-yl)methanone], the EC50 in test [1] (setting [5]) was < 10 nM; in test [2] (setting [6]), > 100 nM.
Turning to `Cn1nc(-c2cscn2)cc1C(=O)N1C[C@@H]2[C@H](C1)[C@H]2Oc1cc(C(C)(N)C(N)=O)cc(-c2ccc(F)cc2)n1` (single isomer, unassigned; ent-2) [Example 49B], the figures for the EC50 in test [1] (setting [3]) and in test [2] (setting [4]) were < 10 nM and > 100 nM, respectively.
For `Cn1nc(-c2cscn2)cc1C(=O)N1C[C@@H]2[C@H](C1)[C@H]2Oc1cc(C(C)(C)N)cc(C2CCC(C)(C)CC2O)n1` (single isomer, unassigned; enantiomer 3) [Example 66C] the same measures were 10 to 100 nM and > 100 nM.
Consider `Cc1nc(-c2ncco2)sc1C(=O)N1C[C@@H]2[C@H](C1)[C@H]2Oc1cc(C(C)(C)N)cc(-c2ccc(F)cc2F)n1` [Example 31, ((1R,5S,6s)-6-((4-(2-aminopropan-2-yl)-6-(2,4-difluorophenyl)pyridin-2-yl)oxy)-3-azabicyclo[3.1.0]hexan-3-yl)(4-methyl-2-(oxazol-2-yl)thiazol-5-yl)], for which the concentration giving a half-maximal response (EC50) was < 10 nM in test [1] (setting [7]) and 10 to 100 nM in test [2] (setting [8]).
For `Cn1nc(-c2cscn2)cc1C(=O)N1C[C@@H]2[C@H](C1)[C@H]2Oc1cc(C2(C)CCN2)cc(-c2ccc(F)cc2)n1` (single isomer, unassigned; enantiomer 2) [Example 55B], the 50% effective concentration (EC50) is < 10 nM in test [1] (setting [3]) and > 100 nM in test [2] (setting [4]).
With `Cn1nc(-c2cscn2)cc1C(=O)N1C[C@@H]2[C@H](C1)[C@H]2Oc1cc(C(C)(C)N)cc(N2CCC(C(F)(F)F)CC2)n1` [Example 41, ((1R,5S,6s)-6-((4-(2-aminopropan-2-yl)-6-(4-(trifluoromethyl)piperidin-1-yl)pyridin-2-yl)oxy)-3-azabicyclo[3.1.0]hexan-3-yl)(1-methyl-3-(thiazol-4-yl)-1H-pyrazol-5-yl)methanone], the 50% effective concentration (EC50) was < 10 nM in test [1] (setting [5]) and > 100 nM in test [2] (setting [6]).
For `Cn1nc(-c2ccon2)cc1C(=O)N1C[C@@H]2[C@H](C1)[C@H]2Oc1cc(C(C)(C)N)cc(-c2ccc(F)cc2)n1` [Example 21, ((1R,5S,6s)-6-((4-(2-aminopropan-2-yl)-6-(4-fluorophenyl)pyridin-2-yl)oxy)-3-azabicyclo[3.1.0]hexan-3-yl)(3-(isoxazol-3-yl)-1-methyl-1H-pyrazol-5-yl)methanone], the results for the EC50 in test [1] (setting [7]) and in test [2] (setting [8]) were < 10 nM and > 100 nM, respectively.
`Cn1nc(-c2cscn2)cc1C(=O)N1C[C@@H]2[C@H](C1)[C@H]2Oc1cc(-c2ccc(F)cc2)cc(C(C)(C)N)n1` [Example 59, ((1R,5S,6s)-6-((6-(2-aminopropan-2-yl)-4-(4-fluorophenyl)pyridin-2-yl)oxy)-3-azabicyclo[3.1.0]hexan-3-yl)(1-methyl-3-(thiazol-4-yl)-1H-pyrazol-5-yl)methanone]: the concentration giving a half-maximal response (EC50) in test [1] (setting [7]) is < 10 nM; in test [2] (setting [8]), > 100 nM.
The corresponding values for `Cn1nc(-c2cscn2)c(F)c1C(=O)N1C[C@@H]2[C@H](C1)[C@H]2Oc1cc(C(C)(C)N)cc(-c2ccc(F)cc2)n1` [Example 25, ((1R,5S,6s)-6-((4-(2-aminopropan-2-yl)-6-(4-fluorophenyl)pyridin-2-yl)oxy)-3-azabicyclo[3.1.0]hexan-3-yl)(4-fluoro-1-methyl-3-(thiazol-4-yl)-1H-pyrazol-5-yl)methanone] are < 10 nM and 10 to 100 nM.
For the compound `Cn1nc(-c2ncco2)cc1C(=O)N1C[C@@H]2[C@H](C1)[C@H]2Oc1cc(C(C)(C)N)cc(-c2ccc3c(c2)CC3(F)F)n1` [Example 35, ((1R,5S,6s)-6-((4-(2-aminopropan-2-yl)-6-(7,7-difluorobicyclo[4.2.0]octa-1(6),2,4-trien-3-yl)pyridin-2-yl)oxy)-3-azabicyclo[3.1.0]hexan-3-yl)(1-methyl-3-(oxazol-2-yl)-1H-pyrazol-5-yl)methanone], the EC50 in test [1] (setting [5]) is < 10 nM; in test [2] (setting [6]), > 100 nM.
For the compound `Cc1nc(-c2ncco2)sc1C(=O)N1C[C@@H]2[C@H](C1)[C@H]2Oc1cc(C(C)(C)N)cc(-c2ccc(F)cc2)n1` [Example 3, ((1R,5S,6s)-6-((4-(2-aminopropan-2-yl)-6-(4-fluorophenyl)pyridin-2-yl)oxy)-3-azabicyclo[3.1.0]hexan-3-yl)(4-methyl-2-(oxazol-2-yl)thiazol-5-yl)methanone], the EC50 in test [1] (setting [7]) was < 10 nM; in test [2] (setting [8]), 10 to 100 nM.
The corresponding values for `Cn1nc(-c2ncco2)cc1C(=O)N1C[C@@H]2[C@H](C1)[C@H]2Oc1cc(C(C)(C)N)cc(-c2ccc(F)cc2)n1` [Example 17, ((1R,5S,6s)-6-((4-(2-aminopropan-2-yl)-6-(4-fluorophenyl)pyridin-2-yl)oxy)-3-azabicyclo[3.1.0]hexan-3-yl)(1-methyl-3-(oxazol-2-yl)-1H-pyrazol-5-yl)methanone] are < 10 nM and 10 to 100 nM.
The corresponding values for `Cn1nc(-c2ncsc2F)cc1C(=O)N1C[C@@H]2[C@H](C1)[C@H]2Oc1cc(C(C)(C)N)cc(-c2ccc(F)cc2)n1` [Example 20, ((1R,5S,6s)-6-((4-(2-aminopropan-2-yl)-6-(4-fluorophenyl)pyridin-2-yl)oxy)-3-azabicyclo[3.1.0]hexan-3-yl)(3-(5-fluorothiazol-4-yl)-1-methyl-1H-pyrazol-5-yl)methanone] are < 10 nM and 10 to 100 nM.
